Patent US11793816B2, “Methods for enhancing cytotoxic cancer therapy through inhibition of ATG4B” (Northwestern University, priority 2019, dated 2023)

Experiments:
[1] = system: LC3B puncta in GSC M83 and JK83 cells; assay: LC3B immunofluorescence (puncta, autophagosomes); type: cell-based; conditions: NSC in cells treated with AZD2014
Procedure: (§1) FIG. 6. NSC enhanced the cytotoxicity of a mTORC1/2 inhibitor AZD2014 in GSCs. (A) GSC M83 and JK83 were exposed to DMSO control vs AZD2014 vs NSCs vs AZD2014 in combination with NSC for 72 hr. Cells were collected for immunoblot analysis using indicated antibodies. (B) Immunofluorescence analyses for LC3B puncta in GSC M83 and JK83 cells with indicated treatments. (C and D) GSC M83 and JK83 and/or neural progenitor cells (NPC) were treated as indicated in (A), cell viability was tested at 72 h after treatment (C), and cell apoptosis was measured by Annexin V FACS assay 48 h after treatment. Data are representative from three independent experiments with similar results.
Immunofluorescent staining. GSCs were seeded onto LabTek CC2-treated tissue culture slides (Thermo Fisher) and cultured for 24 hours. Cells were then fixed with 4% formaldehyde (Fisher) for 15 min, and permeabilized with 0.1% Triton X-100, and then blocked with AquaBlock (East Coast Bio, North Berwick, Me.) for 60 minutes. The slides were incubated with indicated primary antibodies according to the manufacturer's instructions. After being washed for three times with PBS-T, cells were incubated with secondary antibody (Alexa 488 and 594, 1:200) and DAPI-containing mounting solution Vectashield (Vector Laboratories). Cells were analyzed on a Nikon inverted microscope Eclipse Ti-U equipped with a digital camera. […]

[2] = system: LC3B, p62/SQSTM-1 and LAMP2 in GSC M83 and JK83 cells; assay: Immunoblot of autophagy markers (LC3B, p62, LAMP2) in GSCs treated with AZD2014 and NSC; type: cell-based; conditions: NSC in the presence of AZD2014
Procedure: (§2) FIG. 5. A mTORC1/2 inhibitor AZD2014 inhibited cell survival, mTORC1 and mTORC2 activities in GSCs and glioma cells. (A) GSC M83 and JK83 and glioma cells U87 were treated with indicated concentration of AZD2014 for 72 h, then cell viability was evaluated. (B) GSC M83 and JK83 were treated with the indicated concentration of AZD2014 for 1 hr, or with 2 μM AZD2014 for the specified time. Cells were collected for immunoblot analysis. β-actin was used as a loading control; Results are representative of 2 independent experiments. *P<0.05, **P<0.01, paired two-way Student's t-test. Data are representative from three independent experiments with similar results.
as §1, with “results. […]” for “results.”

[3] = Toxicity evaluation of NSC185058 in mouse organs (behavior, hematoxylin and eosin staining); type: in vivo, mice; conditions: for pathologic analysis of vital organs (hematoxylin and eosin): 150 mg/kg Monday, brain, heart, liver, lung, kidney, spleen, one week after last dosing
Procedure: FIG. 1. NSC185058 (NSC) effectively distributes to the plasma, the brain, and the liver with minimal toxicity in mice. (A) to (C) Mice were dosed with peanut oil vehicle or ATG4B antagonists NSC185058 at doses of 10 or 50 mg/kg body weight. Plasma, the brain, and the liver tissues were collected at the indicated time points. (A) Total concentrations of the NSC compound in plasma were measured by LC-MS/MS. The PK parameter of NSC in plasma was determined. (B) NSC levels in plasma were determined form 5 min to 24 hr post dosing. The chemical structure of NSC was shown. (C) NSC levels were determined in the plasma, the brain, and the liver tissues at 0.5 and 8 hr post dosing. (D) Hematoxylin and eosin stained section s of indicated organs that were treated with NSC (150 mg/kg body weight) or vehicle on Monday, Wednesday, and Friday for three weeks. Scale bars, 50 μm. n=3 mice/group/time point.
Mice were randomized into two groups before the start of experiment. Animals received peanut oil vehicle (control) or ATG4B antagonists NSC185058 (150 mg/kg body weight) on Monday, Wednesday, and Friday for tow to three weeks. Then, mouse tissues and organs including the liver, the kidney, the lung, the spleen, the heart, and the brain were collected after one week post last dose. All specimens were immediately formalin-fixed for 24-36 hrs and then embedded in paraffin embedded. Five micrometer-thick serial sections were obtained from each samples for standard hematoxylin and eosin staining.
The NSC was administered at the dose of 10 or 50 mg/kg body weight in group of three mice. At the indicated time points spanning a 24 hrs period ([…], 0.5, 1, 2, 4, 8, and 24 hour), the plasma, the brain, and the liver tissues were collected. Plasmid and extracts from the brain and the liver were analyzed by LC-MS/MS using method developed at the Illinois Institute of Technology Research Institute (IITRI). […] Plasma exposure appears to increase beyond the hinge in dose for the dosing range tested. The elimination half-life was 2 and 4 for the 10 and 50 mg/kg dose, respectively. […] To examine whether NSC is tolerated in mouse, we investigated the effect induced by NSC in mouse behavior or by pathologic analysis of vital organs including the brain, the heart, the liver, the lung, the kidney, and the spleen. Mice underwent treatments on Monday, Wednesday, and Friday for three week with either peanut oil (vehicle) or NSC (150 mg/kg body weight) in peanut oil. […] Animal tissues were collected one week after the last dosing and subject for hematoxylin and eosin staining.

[4] = system: mTORC1 and mTORC2 activity in GSC M83 and JK83 cells; assay: Immunoblot of mTORC1 and mTORC2 activity in GSCs; type: cell-based; conditions: GSC83 and JK83 cells, 72 hr
Procedure: as §2, §1
IB assays were performed as previously described (Huang et al., 2016b). Specific antibodies were used according to the manufacturer's instructions: LC3B (#3868S), pAKT (Ser473; 4060), pAKT(Thr308; 4056), AKT (4691), pS6(S235/236; 2211), S6 (2317), phosphorylated 4E-binding protein 1 (p4EBP1) (Thr37/46; 2855), 4EBP1 (9644), p-mTOR (Ser2448; 2971S), p-mTOR (Ser2481; 2974S), mTOR (2972S), pULK1(Ser317; 14202T), pULK1 (Ser757; 8054T), ULK1(6439), LAMP2 (49067S) were from Cell Signaling Technology. Anti-β-actin (SC-47778) and anti-SQSTM1/p62 (SC-28359) antibodies were from Santa Cruz Biotechnology. An anti-Ki-67 antibody (AB9260) was from EMD Millipore.
mTOR kinases are crucial regulators of glioma cell growth, proliferation and survival (Akhavan et al., 2010). […] A strong inhibition was achieved by 1 μM with complete block of mTORC1/2 activities at 2 μM (FIG. 5B).
Since autophagy activation is considered as a cytoprotective factor that contribute to tumor survival when challenged by therapies, it is proposed that block of autophagy activation by NSC would further enhanced the cytotoxicity of dual TORC1/2 inhibitor AZD2014.

GSC83 and GBM43 cells = assay: Cell viability / proliferation after NSC, IR, TMZ alone or combined; type: cell-based; conditions: NSC combined with IR or/and TMZ vs single treatments, 72 hours

SMILES: S=C(Nc1ccccn1)c1ccccn1 [NSC185058, N-pyridin-2-yl-pyridine-2-carbothioamide]
- autophagosomes number (LC3 B immunofluorescence) [1]: markedly decreased
- autophagy markers (LC3B conversion, p62 and LAMP2 degradation) [2]: attenuated autophagy induction
- pathologic analysis of vital organs (hematoxylin and eosin) ([3]; Wednesday, Friday for three weeks): no relevant tissue toxicity
- pathologic analysis of vital organs (hematoxylin and eosin) ([3]; Wednesday, Friday for three weeks, listed as NSC): no morphological changes or abnormal findings
- mouse behavior ([3]; 150 mg/kg in peanut oil, Monday, Wednesday, Friday for three weeks): did not display behavioral changes
- toxic effects on the animals ([3]; mice): did not display any toxic effects
- mTOR signaling and ULK1 phosphorylation [4]: without affecting the mTOR signaling and ULK1 activity
- tumor cell proliferation (GSC83 and GBM43 cells): more reduction in tumor cell proliferation cells than single treatments
